Measured values from patent US8853424B2 (Japan Science and Technology Agency, priority 2008, dated 2014).

Key:
[1] = test system: Truncated N-terminal huntington 150 Q-EGFP-Neuron 2a cells; assay: Measurement of x-Fold (polyglutamine aggregation inhibitory activity); format: cell-based
Method: In the present invention, the polyglutamine aggregation inhibitory activity (x-Fold) can be measured, for example, by the method described in the Example.
The number of the aggregated cells, and the total number of cells were counted by Array Scan V T1 (manufactured by Cellomics, Pittuburg, USA), and the ratio of the aggregated cells to the total number of cells was determined (x-Fold). […]

transglutaminase (TGase) = assay: Measurement of TG (TGase inhibitory activity, monodansyl cadaverine / N,N-dimethylcasein fluorescence, FDSS 3000); format: biochemical
Method: For example, the method described in the Example can be performed.
The compound of the present invention (10 mM, 1 μL) was taken in a 96-well plate (Nunc, 96 Well Black Plate with Clear Bottom), an enzyme reaction solution (100 mM HEPES-NaOH, pH 7.5, 1 mM CaCl2, 20 μM monodansyl cadaverine, 0.05 mg/mL N,N-dimethylcasein, 5 μg/mL TGase) (0.1 ml) was added and the mixture was sufficiently mixed without making foams. The mixture was set on a fluorescence drug screening system FDSS 3000 (Hamamatsu Photonics K.K.), and changes in the fluorescence wavelength per unit time at 340 nm were measured, based on which the TGase inhibitory activity of the compound of the present invention was calculated. As a control, change in the fluorescence when 1 μL of DMSO (dimethyl sulfoxide) was added instead of the compound of the present invention was taken as 100, and TG50 was when the activity decreased to half due to the compound of the present invention.

[2] = polyglutamine aggregation inhibitory activity, Table 1
[3] = ratio of aggregated cells to total number of cells, compound 20 μM, 20 hr, almost 1 without compound, smaller = stronger inhibition
[4] = TGase activity with compound (10 mM, 1 μL in 0.1 ml enzyme reaction solution), DMSO control taken as 100
[5] = TGase inhibitory activity value, Table 1

| Compound | TGase activity remaining (% of DMSO control = 100) (transglutaminase (TGase); [4]) | TGase activity remaining (% of DMSO control = 100) (transglutaminase (TGase); [5]) | TGase activity remaining (% of DMSO control = 100) (transglutaminase (TGase); TGase inhibitory activity value, Table 1, listed as 5009) | TGase activity remaining (% of DMSO control = 100) (transglutaminase (TGase); TGase inhibitory activity value, Table 1, listed as 583) | TGase activity remaining (% of DMSO control = 100) (transglutaminase (TGase); TGase inhibitory activity value, Table 1, listed as 871) | x-Fold [1, 2] | x-Fold [1, 3] | x-Fold ([1]; polyglutamine aggregation inhibitory activity, Table 1, listed as 5009) | x-Fold ([1]; polyglutamine aggregation inhibitory activity, Table 1, listed as 583) | x-Fold ([1]; polyglutamine aggregation inhibitory activity, Table 1, listed as 871) |
| --- | --- | --- | --- | --- | --- | --- | --- | --- | --- | --- |
| CNCCOB(c1cc(Cl)ccc1F)c1cc(Cl)ccc1F [Example 101, methylaminoethyl bis(3-chloro-6-fluorophenyl)borinate] | 122 | 122 | – | – | – | 1.02 | 1.02 | – | – | – |
| N#Cc1ccc(B(O)c2ccc(C#N)cc2)cc1 [Example 102, bis(4-cyanophenyl)borinic acid] | 72 | – | 72 | – | – | – | 1.10 | 1.10 | – | – |
| N#Cc1ccc(B(OCCN)c2ccc(C#N)cc2)cc1 [Example 103, aminoethyl bis(4-cyanophenyl)borinate] | 114 | 114 | – | – | – | 0.89 | 0.89 | – | – | – |
| N#Cc1ccc(B(OCc2ccccn2)c2ccc(C#N)cc2)cc1 [Example 104, 2-pyridylmethyl bis(4-cyanophenyl)borinate] | 94 | 94 | – | – | – | 1.16 | 1.16 | – | – | – |
| N#Cc1ccc(B(OCCNCc2ccccc2)c2ccc(C#N)cc2)cc1 [Example 105, benzylaminoethyl bis(4-cyanophenyl)borinate] | 92 | 92 | – | – | – | 1.05 | 1.05 | – | – | – |
| N#Cc1ccc(B(SCCN)c2ccc(C#N)cc2)cc1 [Example 106, 2-aminoethylthio bis(4-cyanophenyl)borane] | 23 | 23 | – | – | – | 0.92 | 0.92 | – | – | – |
| CCC(C)B(O)c1ccccc1 (stereo not drawn) [Example 107, secondary-butyl phenyl borinic acid] | 111 | 111 | – | – | – | 0.98 | 0.98 | – | – | – |
| CCCCB(O)c1ccccc1 [Example 108, normal-butyl phenyl borinic acid] | 111 | 111 | – | – | – | 1.00 | 1.00 | – | – | – |
| CC(C)(C)B(OCCN)c1ccccc1 [Example 111, aminoethyl tertiary-butyl phenylborinate] | 121 | 121 | – | – | – | 1.02 | 1.02 | – | – | – |
| CCCCB(OCCN)c1ccccc1 [Example 112, aminoethyl normal-butyl phenylborinate] | 123 | 123 | – | – | – | 0.99 | 0.99 | – | – | – |
| OB(CCCCB(O)c1ccccc1)c1ccccc1 [Example 113, 1,4-bis(hydroxyphenylboryl)butane] | 112 | 112 | – | – | – | 0.99 | 0.99 | – | – | – |
| c1ccc(B(OC(c2ccccc2)c2ccccn2)c2ccccc2COCc2ccccc2B(OC(c2ccccc2)c2ccccn2)c2ccccc2)cc1 (stereo not drawn) [Example 133, (2-pyridyl-phenylmethoxyphenylboryl 2-benzyl)ether] | 106 | 106 | – | – | – | 1.00 | 1.00 | – | – | – |
| FC(F)(F)c1ccc(C(OB(c2ccccc2)c2ccccc2COCc2ccccc2B(OC(c2ccc(C(F)(F)F)cc2)c2ccccn2)c2ccccc2)c2ccccn2)cc1 (stereo not drawn) [Example 134, (2-pyridyl-4-trifluoromethylphenylmethoxyphenylboryl 2-benzyl)ether] | 94 | 94 | – | – | – | 0.92 | 0.92 | – | – | – |

More lines, main results first:

| TGase activity remaining (% of DMSO control = 100) (transglutaminase (TGase); [4]) | TGase activity remaining (% of DMSO control = 100) (transglutaminase (TGase); [5]) | TGase activity remaining (% of DMSO control = 100) (transglutaminase (TGase); TGase inhibitory activity value, Table 1, listed as 5009) | TGase activity remaining (% of DMSO control = 100) (transglutaminase (TGase); TGase inhibitory activity value, Table 1, listed as 583) | TGase activity remaining (% of DMSO control = 100) (transglutaminase (TGase); TGase inhibitory activity value, Table 1, listed as 871) | Compound | x-Fold [1, 2] | x-Fold [1, 3] | x-Fold ([1]; polyglutamine aggregation inhibitory activity, Table 1, listed as 5009) | x-Fold ([1]; polyglutamine aggregation inhibitory activity, Table 1, listed as 583) | x-Fold ([1]; polyglutamine aggregation inhibitory activity, Table 1, listed as 871) |
| --- | --- | --- | --- | --- | --- | --- | --- | --- | --- | --- |
| 101 | – | – | – | – | OB(c1ccc(Cl)cc1)c1ccc(Cl)cc1 [Example 115, bis(4-chlorophenyl)borinic acid] | – | 1.07 | – | – | – |
| 108 | – | – | – | – | Cc1ccc(B(OCCN2CCN(CCOB(c3ccc(C)c(Cl)c3)c3ccc(C)c(Cl)c3)CC2)c2ccc(C)c(Cl)c2)cc1Cl [Example 116, bis(di(3-chloro-4-methylphenyl)boryloxyethyl)piperazine] | – | 1.02 | – | – | – |
| 88 | 88 | – | – | – | NCCOB(c1ccccc1)c1cccc(B(OCCN)c2ccccc2)c1 [Example 120, 1,3-bis(phenyl-2-aminoethoxyboryl)benzene] | 1.08 | 1.08 | – | – | – |
| 121 | – | – | 121 | – | OB(c1ccccc1)c1ccccc1B(O)c1ccccc1 [Example 121, 1,2-bis(phenylhydroxyboryl)benzene] | – | 0.94 | – | 0.94 | – |
| 81 | – | – | – | – | COc1ccc(C(OB(c2ccccc2)c2ccc(COCc3ccc(B(OC(c4ccc(OC)cc4)c4ccccn4)c4ccccc4)cc3)cc2)c2ccccn2)cc1 (stereo not drawn) [Example 126, bis(phenyl 2-pyridyl-4-methoxyphenylmethoxyborylbenzyl)ether] | – | 1.04 | – | – | – |
| 109 | 109 | – | – | – | COc1ccc(C(OB(c2ccc(C)c(Cl)c2)c2ccc(C)c(Cl)c2)c2ccccn2)cc1 (stereo not drawn) [Example 127, bis(3-chloro-4-methylphenyl) 2-pyridyl-4-methoxyphenylmethoxyborane] | 0.70 | 0.70 | – | – | – |
| 143 | 143 | – | – | – | Cc1ccc(B(OCCN)c2ccc(B(OCCN)c3ccc(C)c(Cl)c3)cc2)cc1Cl [Example 128, 1,4-bis(3-chloro-4-methylphenyl-2-aminoethoxyboryl)benzene] | 0.93 | 0.93 | – | – | – |
| 101 | – | – | – | – | NCC(=O)OB(c1ccccc1)c1ccc(Oc2ccc(B(OC(=O)CN)c3ccccc3)cc2)cc1 [Example 129, di((phenylglycine-O,N boryl)phenyl)ether] | – | 0.78 | – | – | – |
| 116 | 116 | – | – | – | OB(c1ccccc1)c1cc(B(O)c2ccccc2)cc(B(O)c2ccccc2)c1 [Example 130, 1,3,5-tri(phenylhydroxyboryl)benzene] | 0.85 | 0.85 | – | – | – |
| 99 | 99 | – | – | – | OB(c1ccccc1)c1ccc(B(O)c2ccccc2)c2ccccc12 [Example 135, 1,4-bis(phenylhydroxyboryl)naphthalene] | 1.03 | 1.03 | – | – | – |
| 96 | – | – | – | 96 | NC(=O)CC(N)C(=O)OB(c1ccccc1)c1ccccc1 (stereo not drawn) [Example 136, diphenyl(asparaginate-O,N)borane] | – | 0.98 | – | – | 0.98 |
| 96 | – | – | – | – | FC(F)(F)c1ccc(C(OB(c2ccccc2)c2ccc(COCc3ccc(B(OC(c4ccc(C(F)(F)F)cc4)c4ccccn4)c4ccccc4)cc3)cc2)c2ccccn2)cc1 (stereo not drawn) [Example 138, bis(2-pyridyl-4-trifluoromethylphenylmethoxyphenylboryl 4-benzyl)ether] | – | 0.99 | – | – | – |
